Results reported in patent US20230310518A1, “Compositions and Methods for Treating Infections of the Gastrointestinal Tract” (Icahn School of Medicine at Mount Sinai, priority 2020, published 2023).

Assays:
[1] = test system: strains included in MTC01; test: Antibiotic susceptibility, MIC by CLSI standards (Micromyx) and in-house etest; assay type: cell-based; conditions: highest value of CLSI and etest methods
Text: To be suitable for human trials, the strains in the bacterial consortium must be cultivatable in growth media that is free of animal products. The inventors discovered that all 16 bacterial strains can be cultured in a specific animal free media LYH_VIB (Table 7). All strains reach sufficient optical density (OD600) and potency (CFU/mL) cultured in LYH_VIB to be manufactured for human trials (Table 5). For safety considerations, the inventors focused on bacterial consortium strains that would be susceptible to multiple antibiotics. The inventors tested susceptibility to a range of antibiotics for all strains included in MTC01 and the minimal inhibitory concentration (MIC) was determined according to guidelines of the Clinical and Laboratory Standards Institute (CLSI). All strains were susceptible to multiple antibiotics (Table 6). […] The inventors confirmed that all 16 strains were strict anaerobes with no bacterial growth documented for any of the strains under aerobic conditions as confirmed by total aerobic microbial count (TAMC).
Each strain is susceptible to multiple antibiotics, and all strains are susceptible to three antibiotics (SAM, AMC, MEM). Minimum inhibitory concentrations (MIC) were determined by a CRO [Micromyx, LLC] according to CLSI standards and in-house by etest, keeping the highest value between the two methods: vancomycin (VAN), metronidazole (MTZ), tigecycline (TGC), ampicillin/sulbactam (SAM), amoxicillin/clavulanic acid (AMC), meropenem (MEM), piperacillin/tazobactam (TZP), clindamycin (CLI), ceftriaxone (CRO), moxifloxacin (MOX). […] Finally, multiple test fermentations were used to determine that the volumes for each manufacturing run are well within the 8L capacity of our current manufacturing set-up.

patients with rCDI = test: Validation of bacterial strain engraftment through culturing from donor and recipient post-FMT; assay type: in vivo, human; conditions: 8 weeks post-FMT; number of strains of the species
Text: The isolation and sequencing of the transmitted strains from both the donor and the recipient represents a gold standard validation and verification of the commensal Koch’s postulates. […] The inventors cultured strains from 6 recipients both pre- and post-FMT (FIG. 2A) and compared the strain composition to that from the donor, to experimentally validate bacterial strain transmission.

Row | Molecule | susceptibility of all MTC01 strains to the antibiotic [1] | Cultured in both donor and recipient post-FMT at 8 weeks (patients with rCDI) [strains]
1 | C[C@@H](O)[C@H]1C(=O)N2C(C(=O)O)=C(S[C@@H]3CN[C@H](C(=O)N(C)C)C3)[C@H](C)[C@H]12 [MEM, meropenem] | susceptible | –
2 | Bacteroides cellulosilyticus | – | 1
3 | Bacteroides fragilis | – | 1
4 | Bifidobacterium longum | – | 4
5 | Parabacteroides distasonis | – | 3
6 | amoxicillin/clavulanic acid [AMC] | susceptible | –
7 | ampicillin/sulbactam [SAM] | susceptible | –
